This note sets out measurements from US7718768B2, “Biologically active peptide [sequence]” (CMS Peptides Patent Holding Company Limited, priority 2001, dated 2010).

Format in all cases: in vivo, BALB/c mice
Assay [1] relates to mononuclear phagocyte. Put plainly: phagocytosis index in mice with transplanted S180 sarcoma. The method, then:
Intraperitoneal injection, once per day. […] Treatment of all groups with testing substance lasted for 30 days or until the animal died unless otherwise specified.
Stock S180 sarcoma cells were incubated in DMEM/F12 medium supplemented with 10% fetal bovine serum, 37° C., 5% CO2 for 72 hrs, then washed 3-4 times with Hank's solution at room temperature. Adjust the cell concentration to 1-2×10^9 per liter with Hank's solution. […] The mice were killed by cervical vertebra dislocation. Vigorously growing and non-disrupted tumor masses were harvested and washed clean with sterile saline. The tissue was dispersed in saline to a homogenous cell suspension, in a ratio of 1 g tissue to 4 ml saline. The sarcoma bearing mice model was prepared with an injection of 0.2 ml cell suspension through the armpit. Administration of test substance treatment started as described in section Method 1.
2.1 The effect of peptides on the phagocytotic function of mononuclear phagocyte in mice with S180 sarcoma was analyzed by injecting mice from the tail vein with 0.1 ml/10 g body weight of Indian ink (1:5 dilution with normal saline) on the second day after the last test substance administration. At one minute and five minutes after the injection, 20 μl blood was obtained from the eye canthus with heparinised tubing. The blood was mixed with 2 ml 0.1% w/v Na2CO3 and then OD680nm obtained. The outline clear index K was calculated by the following formula: K=(lgA1−lgA2)÷(t2−t1)
After the phagocytosis index study, the mice were killed by cervical vertebra dislocation. The liver, spleen, and cancer tissue were dissected, blotted dry, and weighed.
1. The Phagocytosis Index α was Calculated as Below: α=(^3√K)×(W÷WLS)

Assay [2] concerns T lymphocyte. The experiment in a line: T lymphocyte transformation test (ConA, MTT) on spleen cells of treated mice. Set-up: key: OD of assay wells divided by OD of control wells. As to conditions: IFN-γ and IL-2 groups 3×10^5 IU/kg/day, X ± SD. Summed up: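 Mice (10/group) were dosed i.p. in saline once daily for 15 days; spleen cells were harvested the next day. Cells at 1×10^6/ml were stimulated with ConA (100 μg/ml stock) or medium for 66 h at 37 °C, then given MTT for 4 h and read at OD570/630. Stimulation Index = mean ConA OD / mean control OD per mouse.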

For assay [3], the system named is mononuclear phagocyte. Put plainly: carbon particle clearance test, phagocytotic activity of mononuclear phagocyte. To be noted: IFN-γ and IL-2 groups 3×10^5 IU/kg/day, X ± SD. Set-up: key: α = (cube root of K)×(body weight ÷ liver+spleen weight). Summed up:
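Mice received India ink (0.1 ml/kg i.v., 5-fold diluted) on day 16, one day after last dosing; blood at 1 and 5 min was lysed in 0.1% Na2CO3 and read at OD680. Clearance index K from log OD decline; phagocytic index α = ∛K × body weight/(liver+spleen weight); thymus and spleen indices as % body weight.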

In assay [4] the test system is T lymphocyte. The experiment in a line: T lymphocyte transformation in mice with ascitic fluid type liver cancer H22. The method, then:
Healthy BALB/c mice were randomized into peptide group, rmIFN-γ group, rhIL-2 group, and saline group, 15 mice per group, and prepared into H22 carrying mice model as described in section Method 3. After implantation of the cancer cells, the test substances were administered for 15 days, the mice were killed by cervical dislocation. The spleen was isolated aseptically and manually dispersed in cold D-Hank's solution using an injection needle. The dispersed cell suspension was further sieved through a 100-gauge 150 μm diameter stainless steel sieve. After centrifugation at 200 g for 10 minutes, the supernatant was discarded. The cell pellet was re-suspended in 10 volume of Tris-NH4Cl buffer and then kept standing still for 10 minutes at room temperature. The suspended cells were collected by centrifugation at 150 g for 10 minutes. The cells were washed 2-4 times with cold D-Hank's solution by re-suspending and collecting by centrifugation with condition as described above. The washed cells were then diluted to the desired cell densities by RPMI-1640 culture medium, containing 10% fetal bovine serum.
Spleen cells of density 1×10^6/ml were placed onto a 96 wells cell culture plate, 100 μl/well, three parallel wells each of the assay sample and control sample per mouse. To the assay wells, 100 μl/well ConA of 100 μg/ml in RPMI-1640 was added, and 100 μl/well plain RPMI-1640 was used for the controls. The cells were incubated for 66 hrs at 37° C., 5% CO2. The cells were then pelleted by centrifugation at 150 g for 10 minutes.
50 μl/well MTT of 1 mg/ml in RPMI-1640 was added to the cell pellet and the cells re-suspended by shaking for 2 minutes. The incubation was continued for 4 hours. The supernatant was discarded after centrifugation at 150 g for 10 minutes. 120 μl 40 mM HCl-2-propanol was added to the cell pellet and shaken for 3 minutes. Use an ELISA reader to obtain OD570nm of each well referenced at 630 nm.
Each mouse formed three assay wells and three control wells. The Stimulation Index (SI) of each mouse was obtained by first deriving the average OD of the three parallel wells, then dividing the value of the assay wells by the control wells.

[5] abbreviates: peptide 5 μg/kg/day i.p. 15 days.
Where [6] appears, read: peptide 50 μg/kg/day i.p. 15 days.
[7] abbreviates: peptide 500 μg/kg/day i.p. 15 days.
Setting [8] is: peptide 0.5 μg/kg/day i.p. 15 days.
Where [9] appears, read: 3 × 10^5 IU/kg i.p. once per day.

Marks after values point to notes of the source that are not given here. No end group written: not given here.

As for PTTKTYFPHF [CMS001], the results for the Phagocytosis index in assay [1] (5 μg/kg i.p. once per day) and in assay [1] (50 μg/kg i.p. once per day) were 6.67 ± 0.43*^ and 6.24 ± 0.33*^, respectively. The results for the “stimulation index (T lymphocyte transformation)” value in assay [2] (setting [5]) and in assay [2] (setting [6]) were 1.7 ± 0.2 and 2.2 ± 0.5*^@^, respectively.

As for LRVAPEEHPTL [CMS009], in assay [3] (setting [5]), the phagocytotic index is on record as 6.9 ± 0.9*^. Further, the “stimulation index (T lymphocyte transformation)” value in assay [2] (setting [7]) amounted to 1.7 ± 0.2.

As for “Tyr Ser Leu (YSL; listed as Sus scrofa) [CMS024]”, the results for the Stimulation index in assay [4] (0.5 μg/kg i.p. once per day) and in assay [4] (5 μg/kg i.p. once per day) were 1.46 ± 0.19*^$ and 1.45 ± 0.21*^$, respectively. For the same molecule, the figures for the phagocytotic index in assay [3] (setting [8]), in assay [3] (setting [6]) and in assay [3] (setting [7]) were 6.7 ± 0.5*^, 6.6 ± 0.7 and 6.4 ± 1.0, respectively.

On to VGMGQKDSY [CMS019], for which the Stimulation index in assay [4] (0.5 μg/kg i.p. once per day) is 1.50 ± 0.19*^$. The phagocytotic index in assay [3] (setting [5]) was 6.8 ± 0.6*^; in assay [3] (setting [6]), 6.7 ± 0.9*^. Also, in assay [2] (setting [7]), the “stimulation index (T lymphocyte transformation)” value is 1.8 ± 0.3.

In the case of RVAPEEHPTL [CMS011], the phagocytotic index in assay [3] (setting [5]) is recorded as 6.4 ± 1.1. For the same molecule, in assay [2] (setting [8]), the “stimulation index (T lymphocyte transformation)” value turned out to be 1.6 ± 0.4.

For “Phe Val Asn Asp (FVND; listed as Sus scrofa) [CMS035]”, the Stimulation index was 1.40 ± 0.13*^$ in assay [4] (0.5 μg/kg i.p. once per day) and 1.46 ± 0.16*^$ in assay [4] (5 μg/kg i.p. once per day). Moreover, in assay [3] (setting [5]), the phagocytotic index is given as 6.9 ± 0.9*^.

As to VAPEEHPTLLTEAPLNPK [CMS010], the Stimulation index in assay [4] (500 μg/kg i.p. once per day) is 1.45 ± 0.21*^$. Moreover, in assay [3] (setting [5]), the phagocytotic index is on record as 7.1 ± 0.7*^. Moreover, the “stimulation index (T lymphocyte transformation)” value in assay [2] (setting [8]) was 1.7 ± 0.3; in assay [2] (setting [7]) it was 2.0 ± 0.3*^@^.

Regarding “Pro Glu Asn Phe (PENF; listed as Sus scrofa) [CMS034]”, the Stimulation index in assay [4] (0.5 μg/kg i.p. once per day) was 1.37 ± 0.10*^$. The Phagocytosis index in assay [1] (0.5 μg/kg i.p. once per day) is listed as 6.35 ± 1.02; in assay [1] (5 μg/kg i.p. once per day), 6.20 ± 0.44*^. For the same molecule, the “stimulation index (T lymphocyte transformation)” value in assay [2] (setting [5]) amounted to 1.5 ± 0.2.

With FNFVPP [CMS003], the phagocytotic index in assay [3] (setting [5]) is listed as 6.9 ± 0.9*^; in assay [3] (setting [7]), 6.6 ± 0.7. The “stimulation index (T lymphocyte transformation)” value in assay [2] (setting [5]) is given as 1.6 ± 0.2; in assay [2] (setting [6]), 2.2 ± 0.5*^@^.

With IGMESAGIHETTY [CMS016], the phagocytotic index in assay [3] (setting [5]) was 6.9 ± 0.8*^.

Turning to PSIVGRPRHQGVM [CMS015], the “stimulation index (T lymphocyte transformation)” value in assay [2] (setting [7]) is 1.9 ± 0.3*^@^.

For KAVGHLDDLPGAL [CMS008], the results for the phagocytotic index in assay [3] (setting [5]) and in assay [3] (setting [7]) were 6.4 ± 0.5 and 6.5 ± 1.2, respectively. In assay [2] (setting [8]), the “stimulation index (T lymphocyte transformation)” value was 1.7 ± 0.3.

B1: IFN-γ: recombinant mouse interferon-γ, Beijing Biotech Inc.; positive control immunostimulant (protein, UniProt P01580 23-155, looked up)
Interferon gamma: HGTVIESLESLNNYFNSSGIDVEEKSLFLDIWRNWQKDGDMKILQSQIISFYLRLFEVLKDNQAISNNISVIESHLITTFFSNSKAKKDAFMSIAKFEVNNPQVQRQAFNELIRVVHQLLPESSLRKRKRSRC
In assay [4] (setting [9]), B1 gave a Stimulation index of 1.27 ± 0.14. Moreover, the phagocytotic index in assay [3] (setting [8]), in assay [3] (setting [5]), in assay [3] (setting [6]) and in assay [3] (setting [7]) was 6.4 ± 0.9 in each case. This molecule also showed a Phagocytosis index in assay [1] (setting [9]) of 5.45 ± 0.71. For the same molecule, the “stimulation index (T lymphocyte transformation)” value in assay [2] (setting [8]) amounted to 1.6 ± 0.2; in assay [2] (setting [5]), 1.6 ± 0.2; in assay [2] (setting [6]) it was 1.7 ± 0.2; in assay [2] (setting [7]), 1.6 ± 0.2.
